For experiment [1], the system named is Vero. Put plainly: cells. The experiment is classed as functional. Particulars: Chlorocebus sabaeus.
Experiment [2] in a line: control 3'UTR Renilla luciferase suppression, dose response, counter-screen for Shn3 inhibitor project, cell-based, Clone20-Shn3RL, cherry-picked (AID 624133). The format is functional.
Experiment [3] in a line: Shn3 3'UTR reporter inhibitors, dose response, cell-based, Clone20 osteoblasts, firefly luciferase, cherry-picked (AID 624132).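 Further: firefly luciferase luminescence from reporter carrying the Shn3 3'UTR in osteoblasts.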 The experiment is classed as functional.
The subject of experiment [4] is Vero. Put plainly: host cell cytotoxicity of antiviral hits, dose response, cytotoxicity control for West Nile virus antiviral project, secondary assay (AID 1650). The format is functional. Particulars: Chlorocebus sabaeus.
The next experiment deals with Prothrombin (Homo sapiens, UniProt P00734). Put plainly: Thrombin 1536 HTS Dose Response Confirmation. [Related pubchem assays: 1046 (Thrombin 1536 HTS; hits were confirmed in this assay)]. The format is functional.
Experiment [5] addresses T1, Estrogen receptor beta (Homo sapiens, UniProt Q92731). Put plainly: ERβ–SRC-3 coactivator interaction inhibitors, confirmation, orthogonal assay, biochemical, ELISA, streptavidin-HRP readout (AID 1060).
The target of experiment [6] is T1, Estrogen receptor beta.
The target in another experiment is Cytochrome P450 3A4 (Homo sapiens, UniProt P08684). Conditions: Potency.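 Further: confirmatory qHTS run detecting inhibitors and substrates of CYP3A4.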
Chain of Cytochrome P450 3A4 (P08684 whole entry): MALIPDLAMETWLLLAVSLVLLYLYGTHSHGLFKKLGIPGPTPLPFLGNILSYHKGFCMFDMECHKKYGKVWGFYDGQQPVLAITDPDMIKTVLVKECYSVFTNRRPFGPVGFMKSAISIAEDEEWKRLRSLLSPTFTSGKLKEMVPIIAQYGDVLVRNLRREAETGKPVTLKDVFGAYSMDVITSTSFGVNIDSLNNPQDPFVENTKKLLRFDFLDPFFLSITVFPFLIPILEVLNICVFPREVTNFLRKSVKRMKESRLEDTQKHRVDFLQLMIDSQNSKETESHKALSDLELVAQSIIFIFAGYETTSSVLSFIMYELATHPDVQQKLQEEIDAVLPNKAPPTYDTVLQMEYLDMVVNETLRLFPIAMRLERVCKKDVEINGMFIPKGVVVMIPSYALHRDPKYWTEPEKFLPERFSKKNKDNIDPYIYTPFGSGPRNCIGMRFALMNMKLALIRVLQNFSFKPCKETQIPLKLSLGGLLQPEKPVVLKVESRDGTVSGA
The target of experiment [7] is Induced myeloid leukemia cell differentiation protein Mcl-1 (Homo sapiens, UniProt Q07820). The format is functional.
Chain of Induced myeloid leukemia cell differentiation protein Mcl-1 (Q07820 whole entry): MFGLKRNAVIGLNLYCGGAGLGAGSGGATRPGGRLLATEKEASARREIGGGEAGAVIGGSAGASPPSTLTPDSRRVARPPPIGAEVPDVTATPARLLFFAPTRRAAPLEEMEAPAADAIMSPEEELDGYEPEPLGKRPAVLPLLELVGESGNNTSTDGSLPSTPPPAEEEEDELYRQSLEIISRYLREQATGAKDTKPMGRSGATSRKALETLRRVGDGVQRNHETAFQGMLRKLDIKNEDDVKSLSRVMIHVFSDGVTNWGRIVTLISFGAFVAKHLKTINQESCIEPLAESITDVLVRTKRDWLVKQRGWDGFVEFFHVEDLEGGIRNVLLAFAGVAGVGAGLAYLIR
Experiment [8] has as its target T2, Histone-lysine N-methyltransferase NSD2 (Homo sapiens, UniProt O96028).
T2 sequence (O96028 whole entry): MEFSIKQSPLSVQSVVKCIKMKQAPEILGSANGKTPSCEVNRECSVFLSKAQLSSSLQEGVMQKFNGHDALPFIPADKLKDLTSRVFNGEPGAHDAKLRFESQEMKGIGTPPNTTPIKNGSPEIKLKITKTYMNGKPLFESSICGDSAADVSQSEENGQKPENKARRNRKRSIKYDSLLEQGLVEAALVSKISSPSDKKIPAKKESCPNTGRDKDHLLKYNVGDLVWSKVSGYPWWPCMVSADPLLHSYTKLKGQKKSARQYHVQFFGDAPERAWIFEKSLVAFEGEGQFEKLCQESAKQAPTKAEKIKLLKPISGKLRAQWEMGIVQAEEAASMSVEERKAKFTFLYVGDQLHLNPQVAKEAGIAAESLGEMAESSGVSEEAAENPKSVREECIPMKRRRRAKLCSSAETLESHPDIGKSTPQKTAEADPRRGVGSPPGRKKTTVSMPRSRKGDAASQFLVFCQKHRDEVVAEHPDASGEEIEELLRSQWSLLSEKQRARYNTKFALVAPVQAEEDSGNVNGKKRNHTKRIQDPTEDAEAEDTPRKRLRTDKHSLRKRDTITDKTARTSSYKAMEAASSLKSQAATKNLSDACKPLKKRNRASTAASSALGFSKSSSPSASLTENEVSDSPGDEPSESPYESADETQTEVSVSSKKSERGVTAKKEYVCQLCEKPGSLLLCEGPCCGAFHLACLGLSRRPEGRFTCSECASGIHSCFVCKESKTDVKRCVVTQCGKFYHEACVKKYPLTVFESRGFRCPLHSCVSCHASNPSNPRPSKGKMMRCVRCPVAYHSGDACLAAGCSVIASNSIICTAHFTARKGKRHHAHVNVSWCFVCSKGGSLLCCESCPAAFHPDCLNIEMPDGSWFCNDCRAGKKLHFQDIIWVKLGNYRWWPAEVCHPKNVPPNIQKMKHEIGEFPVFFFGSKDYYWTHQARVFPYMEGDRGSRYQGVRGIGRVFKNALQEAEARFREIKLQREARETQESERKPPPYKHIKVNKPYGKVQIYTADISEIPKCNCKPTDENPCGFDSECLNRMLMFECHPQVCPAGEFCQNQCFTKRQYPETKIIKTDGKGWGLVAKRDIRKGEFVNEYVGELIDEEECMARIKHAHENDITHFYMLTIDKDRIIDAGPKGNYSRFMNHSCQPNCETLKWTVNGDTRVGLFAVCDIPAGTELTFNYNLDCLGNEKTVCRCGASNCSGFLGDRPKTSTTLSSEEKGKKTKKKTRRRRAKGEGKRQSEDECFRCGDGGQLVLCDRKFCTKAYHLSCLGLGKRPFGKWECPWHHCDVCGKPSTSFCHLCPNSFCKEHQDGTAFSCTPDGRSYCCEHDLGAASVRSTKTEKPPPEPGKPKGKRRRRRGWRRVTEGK
The experiment is classed as biochemical.

Another experiment has as its target Large T antigen (Simian virus 40, UniProt P03070). The format is functional, Betapolyomavirus macacae.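 Further: Confirmatory-stage PubChem screen for compounds that inhibit SV40 T antigen.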
Experiment [9] concerns the target T3, Acyl-homoserine lactone acylase PvdQ (Pseudomonas aeruginosa (strain LESB58), UniProt Q9I194).
T3 sequence (Q9I194 whole entry): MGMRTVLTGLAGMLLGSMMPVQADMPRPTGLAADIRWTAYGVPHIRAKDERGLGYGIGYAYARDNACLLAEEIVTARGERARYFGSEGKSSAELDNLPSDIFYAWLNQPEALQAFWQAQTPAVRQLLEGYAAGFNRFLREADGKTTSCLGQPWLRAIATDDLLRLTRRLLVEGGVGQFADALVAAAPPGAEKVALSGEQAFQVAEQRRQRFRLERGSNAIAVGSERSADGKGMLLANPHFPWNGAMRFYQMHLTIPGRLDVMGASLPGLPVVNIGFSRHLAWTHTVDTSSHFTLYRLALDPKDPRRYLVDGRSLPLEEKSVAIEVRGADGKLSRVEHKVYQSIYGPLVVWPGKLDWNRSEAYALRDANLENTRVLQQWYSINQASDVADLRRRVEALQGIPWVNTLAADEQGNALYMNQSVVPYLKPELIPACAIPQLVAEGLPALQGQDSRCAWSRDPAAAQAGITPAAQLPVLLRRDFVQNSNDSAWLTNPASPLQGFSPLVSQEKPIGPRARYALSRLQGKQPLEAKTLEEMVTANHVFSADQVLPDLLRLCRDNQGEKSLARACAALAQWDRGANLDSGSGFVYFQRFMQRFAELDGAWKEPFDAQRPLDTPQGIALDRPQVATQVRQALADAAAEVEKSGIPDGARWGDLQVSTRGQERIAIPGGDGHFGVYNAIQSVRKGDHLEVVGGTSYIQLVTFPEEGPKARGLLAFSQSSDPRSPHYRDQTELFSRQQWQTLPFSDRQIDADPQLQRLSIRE
The experiment in a line: P. aeruginosa PvdQ acylase inhibitors, dose response, biochemical, fluorescence, plate reader and imaging, cherry-picks (AID 493231).

Experiment [10] has as its target Dual specificity tyrosine-phosphorylation-regulated kinase 1A (Rattus norvegicus, UniProt Q63470). The experiment is classed as biochemical, Homo sapiens.
The target of another experiment is T4, Bcl-2-like protein 10 (Homo sapiens, UniProt Q9HD36).
T4 sequence (Q9HD36 whole entry): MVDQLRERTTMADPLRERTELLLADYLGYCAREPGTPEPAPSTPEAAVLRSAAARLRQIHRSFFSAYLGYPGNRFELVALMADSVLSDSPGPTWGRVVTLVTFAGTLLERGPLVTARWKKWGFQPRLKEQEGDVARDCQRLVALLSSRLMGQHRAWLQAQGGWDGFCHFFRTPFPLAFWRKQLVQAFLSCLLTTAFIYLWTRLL
The experiment in a line: displacers of TR3 peptide from Bcl-B, primary screen, selectivity assay for Bfl-1 inhibitor project, biochemical, fluorescence polarization, FITC-TR3 peptide (AID 748).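 Further: fluorescence polarization from a fluorescein-labelled TR3 peptide binding purified Bcl-B.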

The target of a further experiment is Paired box protein Pax-8 (Homo sapiens, UniProt Q06710). Put plainly: inhibitors of PAX8-driven TPO luciferase reporter, dose response, RMG-I cells, cherry-pick (AID 687027).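 Further: luciferase reporter driven by Pax8 target thyroperoxidase promoter measured by SteadyGlo luminescence.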 The experiment is classed as functional, cell-based.
Chain of Paired box protein Pax-8 (Q06710 whole entry): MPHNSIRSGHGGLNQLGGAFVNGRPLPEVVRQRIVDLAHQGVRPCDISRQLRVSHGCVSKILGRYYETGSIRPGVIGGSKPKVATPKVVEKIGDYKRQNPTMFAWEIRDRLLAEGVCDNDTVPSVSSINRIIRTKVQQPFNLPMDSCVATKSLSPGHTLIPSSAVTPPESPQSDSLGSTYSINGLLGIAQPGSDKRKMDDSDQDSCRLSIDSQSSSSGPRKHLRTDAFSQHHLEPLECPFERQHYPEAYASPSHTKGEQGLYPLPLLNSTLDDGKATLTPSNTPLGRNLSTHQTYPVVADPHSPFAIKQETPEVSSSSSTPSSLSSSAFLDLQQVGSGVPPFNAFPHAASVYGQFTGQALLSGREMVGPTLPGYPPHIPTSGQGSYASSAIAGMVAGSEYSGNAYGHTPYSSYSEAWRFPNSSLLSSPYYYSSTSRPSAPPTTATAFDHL
Experiment [11] is described as follows: cytotoxicity toward NIH3T3 fibroblasts, dose response, counter-screen, cell-based, ATP luminescence, mouse fibroblasts (AID 2010).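 Further: cells exposed to compound for about 90 hours before reading.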 The experiment is classed as functional.
Experiment [12] in a line: inhibitors of intracellular T. cruzi replication, confirmation, NIH3T3 host cells, beta-gal luminescence (AID 2044).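 Further: intracellular parasites grown in NIH/3T3 mouse fibroblasts as host cells; luminescent beta-galactosidase reporter signal from transgenic T. cruzi replicating inside host cells; inhibitors lower the luminescence signal.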 The format is functional, cell-based.
A short description of experiment [13]: non-specific cell cytotoxicity, dose response, cytotoxicity control for PAX8 inhibitor project, plate reader, dry powder samples (AID 743021). The format is functional, cell-based.
The nature of experiment [14]: IGROV1 ovarian cancer cell cytotoxicity, dose response, PAX8 inhibitor project, plate reader, dry powder samples (AID 743043). The experiment is classed as functional, cell-based. Conditions: IGROV-1.
A short description of experiment [15]: cytotoxicity in OVCAR8 ovarian cancer cells, dose response, PAX8 project, cell-based, plate reader, dry powder samples (AID 743197). The format is functional. Conditions: OVCAR-8.
Experiment [16] is described as follows: A2780 ovarian cancer cell cytotoxicity, dose response, cytotoxicity control, plate reader, dry powder samples (AID 743046). The format is functional, cell-based.
A short description of experiment [17]: NIH:OVCAR-3 ovarian cancer cell cytotoxicity, dose response, PAX8 inhibitor project, plate reader, dry powder samples (AID 743044). The experiment is classed as functional, cell-based.
Experiment [18] in a line: HepG2 cell cytotoxicity, dose response, cytotoxicity control, cherry-picked samples (AID 1159577). The experiment is classed as functional, cell-based.
Experiment [19] in a line: P. falciparum Dd2 growth inhibitors, dose response, SYBR Green, cherry-picked samples (AID 1159567). The experiment is classed as functional, cell-based.

Activity calls are given as the source filed them.

T1 sequence (Q92731 whole entry): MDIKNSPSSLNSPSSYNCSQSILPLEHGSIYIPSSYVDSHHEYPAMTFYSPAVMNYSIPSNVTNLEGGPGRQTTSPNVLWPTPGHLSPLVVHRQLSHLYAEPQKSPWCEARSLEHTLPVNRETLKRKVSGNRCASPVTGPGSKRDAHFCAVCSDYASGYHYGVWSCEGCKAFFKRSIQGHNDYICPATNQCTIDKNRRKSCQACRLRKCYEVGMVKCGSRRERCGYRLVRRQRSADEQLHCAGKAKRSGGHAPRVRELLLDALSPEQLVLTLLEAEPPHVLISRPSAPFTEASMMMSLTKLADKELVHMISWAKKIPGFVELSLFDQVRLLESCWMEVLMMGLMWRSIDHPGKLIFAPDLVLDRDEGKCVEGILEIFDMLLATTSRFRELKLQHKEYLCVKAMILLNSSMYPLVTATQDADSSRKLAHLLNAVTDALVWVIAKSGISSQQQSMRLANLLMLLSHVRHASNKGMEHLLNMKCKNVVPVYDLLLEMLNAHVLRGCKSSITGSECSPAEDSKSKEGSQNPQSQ
Chain of Large T antigen (P03070 whole entry): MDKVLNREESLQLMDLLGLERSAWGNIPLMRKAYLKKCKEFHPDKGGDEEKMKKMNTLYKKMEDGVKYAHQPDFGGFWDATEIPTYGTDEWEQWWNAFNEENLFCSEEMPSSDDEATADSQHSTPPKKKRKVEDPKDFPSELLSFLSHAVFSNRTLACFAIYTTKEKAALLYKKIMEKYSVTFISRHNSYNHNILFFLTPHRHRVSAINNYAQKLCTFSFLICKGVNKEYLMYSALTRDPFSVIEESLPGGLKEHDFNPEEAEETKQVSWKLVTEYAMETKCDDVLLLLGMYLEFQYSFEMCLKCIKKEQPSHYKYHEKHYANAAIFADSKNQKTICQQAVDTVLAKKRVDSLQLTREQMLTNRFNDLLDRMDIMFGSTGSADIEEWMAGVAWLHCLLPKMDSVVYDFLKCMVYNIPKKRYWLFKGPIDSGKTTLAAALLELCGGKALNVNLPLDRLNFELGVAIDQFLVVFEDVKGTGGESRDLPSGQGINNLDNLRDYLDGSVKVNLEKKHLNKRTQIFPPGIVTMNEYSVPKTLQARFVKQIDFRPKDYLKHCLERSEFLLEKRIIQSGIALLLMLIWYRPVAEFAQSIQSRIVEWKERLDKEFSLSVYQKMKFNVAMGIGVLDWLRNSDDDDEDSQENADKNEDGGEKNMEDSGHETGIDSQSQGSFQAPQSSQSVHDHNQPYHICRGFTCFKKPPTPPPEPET

`Cc1ccc(Cn2ccc(NC(=O)c3nn(C)cc3[N+](=O)[O-])n2)cc1`: the CC50 in the experiment with Vero [1] was 13.8 µM (active); in the experiment with Vero [4], 11.6 µM (active). For the same compound, the AC50 was 27.3 µM (active) in [2] and 4.09 µM (active) in experiment [3].

For the compound `CC(Nc1nc(O)c2c(ncn2Cc2ccccc2)n1)C(=O)O` (stereo unspecified), on Prothrombin, the IC50 is on record as > 50 µM (not active).

Turning to `Cc1cc2n(c1)CCn1c(C)ccc1-2`, the 50% inhibitory concentration (IC50) against Estrogen receptor beta [5] was 3.06 µM (not active); at Estrogen receptor beta [6] it was 3.91 µM (active).

Regarding `COC(=O)NC(c1cccc(C)c1)C(C(C)=O)C(=O)OC` (stereo unspecified), the concentration at half-maximal activity (AC50) at Cytochrome P450 3A4 was 7.94 µM (inconclusive).

In the case of `COc1ccc(S(=O)(=O)N2CCOCC2)cc1NC(=O)COC(=O)c1ccc(C)s1`, the half-inhibitory concentration (IC50) at Prothrombin was 0.408 µM (active).

In the case of `Cc1ccc(C2=NC(=O)/C(=C/c3cc(O)c(O)c(Br)c3)S2)cc1`, the values for the half-maximal inhibitory concentration (IC50) (in experiment [7]; at Large T antigen) were 0.767 µM (active) and 4.91 µM (active), respectively. Besides, the concentration at half-maximal activity (AC50) in [8] was 3.45 µM (active).

Regarding `Cc1cc(-c2ccc(/N=N/c3cc(S(=O)(=O)O)c4ccccc4c3N)c(C)c2)ccc1/N=N/c1cc(S(=O)(=O)O)c2ccccc2c1N`, the half-maximal activity concentration (AC50) on Cytochrome P450 3A4 was 25.1 µM (inconclusive).

Consider `c1cnc2ccc(-c3ccc4ncccc4c3)cc2c1`, for which the AC50 in experiment [9] was 10.7 µM (active); in [10] it was 0.189 µM (active).

Consider `COc1ccc(N(C(=O)c2ccco2)S(=O)(=O)c2cccc([N+](=O)[O-])c2)cc1`, for which the IC50 on Prothrombin is 2.18 µM (active).

`COCc1cc(C2SCC(=O)Nc3c2c(O)nn3C(C)C)ccc1OC` (stereo unspecified): at Bcl-2-like protein 10, the IC50 was > 100 µM (inactive).

As to `CC(=O)Nc1ccc(OC(=O)CC2SC(=O)NC2=O)cc1` (stereo unspecified), the half-inhibitory concentration (IC50) on Estrogen receptor beta [5] is < 0.023 µM (not active); on Bcl-2-like protein 10 it was > 100 µM (inactive); on Estrogen receptor beta [6], 8.53 µM (active).

Take `COc1ccc(/C=C2\CN(Cc3ccccc3)C/C(=C\c3ccc(OC)cc3OC)C2=O)c(OC)c1`: the half-maximal activity concentration (AC50) at Paired box protein Pax-8 is 10.4 µM (active); in experiment [13], 42.3 µM (active). Moreover, the concentration for a half-maximal effect (EC50) in experiment [11] is 9.01 µM (active); in experiment [12], 1.83 µM (active).

For the compound `CC(C)=CCC/C(C)=C/CN1C(=O)N(c2ccc(F)cc2)[C@H]2C[C@@H](c3ccccc3)[C@@H](C)[C@@H](C(=O)N3CCOCC3)C[C@H]21`, the concentration at half-maximal activity (AC50) was 2.66 µM (active) at Paired box protein Pax-8 and 42 µM (active) in experiment [13].

Regarding `COc1ccc(S(=O)(=O)Nc2ccc3c(c2)C(=O)N([C@H](C)CO)C[C@H](C)[C@@H](CN(C)S(=O)(=O)c2ccc(F)cc2)OCCCC[C@H](C)O3)cc1`, the AC50 in experiment [14] was 37.1 µM (active); in experiment [15], 22.9 µM (active); on Paired box protein Pax-8, 3.96 µM (active); in [16], 34.7 µM (active); in [17] it was 12.5 µM (active).

`C[C@@H]1CCCCO[C@H](CN(C)S(=O)(=O)c2ccc(Cl)cc2)[C@@H](C)CN([C@@H](C)CO)C(=O)c2cc(NS(=O)(=O)c3ccc(F)cc3)ccc2O1`: the half-maximal activity concentration (AC50) was 62.8 µM (active) in [15], 7.67 µM (active) at Paired box protein Pax-8, 11.5 µM (active) in experiment [16] and 39 µM (active) in [17].

`COc1ccc(C#Cc2ccc([C@@H]3[C@H](CO)N4CCCCN(Cc5ccccc5F)C[C@@H]34)cc2)cc1`: the results for the AC50 in experiment [18] and in [19] were 9.38 µM (active) and 0.756 µM (active), respectively.

As for `O=S(=O)(c1ccc(F)cc1)N1C[C@@H]2N[C@H](C1)[C@@H]2c1ccc(-c2ccc(F)cc2)cc1`, the concentration at half-maximal activity (AC50) is 11 µM (active) in experiment [18] and 7.37 µM (active) in experiment [19].

Take `O=C(Nc1cc(F)ccc1F)N1CCCCN2[C@@H](CO)[C@@H](c3ccc(-c4ccccc4)cc3)[C@@H]2C1`: the AC50 in [18] is 9.99 µM (active); in [19], 2.56 µM (active).
